Laboratory results taken from PMC6399351, “Cationic Intrinsically Disordered Antimicrobial Peptides (CIDAMPs) Represent a New Paradigm of Innate Defense with a Potential for Novel Anti-Infectives” (Scientific Reports, 2019).
In brackets after ≈: the same amount, converted by molar mass. Like-named read-outs stand apart in the source and are kept apart here. Peptide text beside a SMILES is read from it. * marks the point of attachment. Palmitoyl = CCCCCCCCCCCCCCCC(=O)*

Tests used:
[1] = test system: Pseudomonas aeruginosa ATCC 27853; test: CO-ADD MIC, broth microdilution (CLSI); assay type: cell-based; conditions: Mueller–Hinton broth, 5 × 10^5 CFU/mL, 18 h 37 °C, by CO-ADD
From the text: (§1) They were defined as the lowest peptide
(§2) Further details of the screening

[2] = test system: Acinetobacter baumannii ATCC 19606; test: CO-ADD MIC, broth microdilution (CLSI); assay type: cell-based; conditions: Mueller–Hinton broth, 5 × 10^5 CFU/mL, 18 h 37 °C, by CO-ADD
From the text: as §1, §2

[3] = test system: Klebsiella pneumonia ATCC 700603; conditions: MDR strain; CLSI, Mueller–Hinton broth, 5 × 10^5 CFU/mL, 18 h 37 °C, by CO-ADD
S. aureus ATCC 6538 = conditions: CFU assay, 10 mM NaP
[4] = test system: Burkholderia cepacia ATCC 25416; conditions: CFU assay, 10 mM NaP
[5] = test system: Streptococcus pyogenes ATCC 12344; test: CFU assay of antimicrobial activity; assay type: cell-based; conditions: 10 mM NaP
Protocol: (§3) All purified peptides and recombinant proteins were applied using a colony forming unit (CFU) assay in different media. Bacteria were grown to early log-phase in BHI, washed either with 10 mM Na-P, pH 7.4/1% TSB or pH 5.5/1% TSB, or pH 5.5 without TSB or BHI, and adjusted to a concentration of 10^4–10^5 colony forming units (CFU)/ml. For cell number control, 100 µl aliquots were diluted 1:10, 1:100 and 1:1000 and plated in duplicates on BHI agar plates. To 100 µl aliquots of the bacteria, suspended in the respective medium (10 mM Na-P buffer pH 7,0–7,4/ 1% (w/v) TSB; […]; 10 mM Na-P buffer pH 7,0–7,4/ 1% (w/v) TSB pH 7,0–7,4/ 0,25% (w/v) glucose; 10 mM Na-P buffer pH 5,5/ 0,25% (w/v) glucose, respectively), 10 µl of a solution of the peptide or protein (two-fold dilutions, from 300 µg/ml or 150 µg/ml down to 19 ng/ml), dissolved in 0.01% (v/v) acetic acid, were added.
(§4) Then bacteria were incubated for 2 h at ambient temperature, if not otherwise stated. 10 µl of 0.01% (v/v) acetic acid, added to 100 µl aliquots of the bacteria in the respective medium, served as negative control. From each test, 1:10 and 1:100 dilutions were generated and plated as duplicates of 100 µl aliquots on BHI agar plates. After 16 h incubation at 37 °C, CFU were counted using a colony counter (Bio Kobe, Japan) and expressed as mean of the duplicate estimation to achieve a complete dose-response curve. All experiments were performed at serial dilutions in a concentration range of 100 µg/mL −25 ng/mL for recombinant HRNR fragments and 300 or 150 µg/mL–19 ng/mL for synthetic peptides.

[6] = test system: Streptococcus pneumoniae ATCC 33400; test: CFU assay of antimicrobial activity; assay type: cell-based; conditions: 10 mM NaP
Protocol: as §3, §4

[7] = test system: Candida albicans ATCC 90028; test: CO-ADD MIC, antifungal assay (CLSI); assay type: cell-based; conditions: Yeast Nitrogen Base broth, 24 h 35 °C, by CO-ADD
Protocol: (§5) Fungi strains were cultured for 3 days on Yeast Extract-Peptone Dextrose (YPD) agar at 30 °C. A yeast suspension of 1 × 10^6 to 5 × 10^6 cells/mL (as determined by OD530) was prepared from five colonies. These stock suspensions were diluted with Yeast Nitrogen Base (YNB) broth to a final concentration of 2.5 × 10^3 CFU/mL. […] Plates were covered and incubated at 35 °C for 24 h without shaking.

[8] = test system: Cryptococcus neoformans ATCC 208821; test: CO-ADD MIC, antifungal assay (CLSI); assay type: cell-based; conditions: Yeast Nitrogen Base broth, 24 h 35 °C, by CO-ADD
Protocol: as §5

[9] = test system: Staphylococcus aureus ATCC 43300; conditions: MRSA; CLSI, Mueller–Hinton broth, 5 × 10^5 CFU/mL, 18 h 37 °C, by CO-ADD
[10] = test system: Clostridium perfringens ATCC 13124; conditions: CFU assay, 10 mM NaP
[11] = test system: Prevotella oralis ATCC 33321; test: CFU assay of antimicrobial activity; assay type: cell-based; conditions: 10 mM NaP
Protocol: All purified peptides and recombinant proteins were applied using a colony forming unit (CFU) assay in different media. Bacteria were grown to early log-phase in BHI, washed either with 10 mM Na-P, pH 7.4/1% TSB or pH 5.5/1% TSB, or pH 5.5 without TSB or BHI, and adjusted to a concentration of 10^4–10^5 colony forming units (CFU)/ml. For cell number control, 100 µl aliquots were diluted 1:10, 1:100 and 1:1000 and plated in duplicates on BHI agar plates. To 100 µl aliquots of the bacteria, suspended in the respective medium (10 mM Na-P buffer pH 7,0–7,4/ 1% (w/v) TSB; 10 mM Na-P buffer pH 5,5/ 1% (w/v) TSB; 10 mM Na-P buffer pH 7,0–7,4/ 1% (w/v) TSB pH 7,0–7,4/ 0,25% (w/v) glucose; […], respectively), 10 µl of a solution of the peptide or protein (two-fold dilutions, from 300 µg/ml or 150 µg/ml down to 19 ng/ml), dissolved in 0.01% (v/v) acetic acid, were added.
as §4

E. coli ATCC 25922 = test: CO-ADD MIC, broth microdilution (CLSI); assay type: cell-based, Escherichia coli; conditions: Mueller–Hinton broth, 5 × 10^5 CFU/mL, 18 h 37 °C, by CO-ADD
From the text: as §1, §2

[12] = test system: Propionibacterium acnes ATCC 6919; test: CFU assay of antimicrobial activity; assay type: cell-based; conditions: 10 mM NaP
Protocol: (§6) All purified peptides and recombinant proteins were applied using a colony forming unit (CFU) assay in different media. Bacteria were grown to early log-phase in BHI, washed either with 10 mM Na-P, pH 7.4/1% TSB or pH 5.5/1% TSB, or pH 5.5 without TSB or BHI, and adjusted to a concentration of 10^4–10^5 colony forming units (CFU)/ml. For cell number control, 100 µl aliquots were diluted 1:10, 1:100 and 1:1000 and plated in duplicates on BHI agar plates. To 100 µl aliquots of the bacteria, suspended in the respective medium (10 mM Na-P buffer pH 7,0–7,4/ 1% (w/v) TSB; 10 mM Na-P buffer pH 5,5/ 1% (w/v) TSB; 10 mM Na-P buffer pH 7,0–7,4/ 1% (w/v) TSB pH 7,0–7,4/ 0,25% (w/v) glucose; 10 mM Na-P buffer pH 5,5/ 0,25% (w/v) glucose, respectively), 10 µl of a solution of the peptide or protein (two-fold dilutions, from 300 µg/ml or 150 µg/ml down to 19 ng/ml), dissolved in 0.01% (v/v) acetic acid, were added.
as §4

P. aeruginosa ATCC 10145 = conditions: CFU assay, 10 mM NaP
[13] = test system: Klebsiella pneumoniae ATCC 13883; conditions: CFU assay, 10 mM NaP
[14] = test system: Staphylococcus epidermidis ATCC 14990; test: CFU assay of antimicrobial activity; assay type: cell-based; conditions: 10 mM NaP
Protocol: as §6, §4

E. coli ATCC 11775 = test: CFU assay of antimicrobial activity; assay type: cell-based, Escherichia coli; conditions: 10 mM NaP
Protocol: as §6, §4

[15] = test system: Salmonella typhimurium ATCC 13311; test: CFU assay of antimicrobial activity; assay type: cell-based; conditions: 10 mM NaP
Protocol: as §6, §4

| Compound | Minimal inhibitory concentration (MIC) [1] | Minimal inhibitory concentration (MIC) [2] | Minimal inhibitory concentration (MIC) [3] | LD90 (S. aureus ATCC 6538; pH 5.5, 0.25% glucose) | LD90 (S. aureus ATCC 6538; pH 7.3, 1% TSB) | LD90 ([4]; pH 7.3, 0.25% glucose) | LD90 ([5]; pH 7.3, 0.25% glucose) | LD90 ([6]; pH 7.3, 0.25% glucose) | Minimal inhibitory concentration (MIC) [7] | Minimal inhibitory concentration (MIC) [8] | Minimal inhibitory concentration (MIC) [9] | LD90 ([10]; pH 7.3, 0.25% glucose) | LD90 ([11]; pH 7.3, 1% TSB) | Minimal inhibitory concentration (MIC) (E. coli ATCC 25922) | LD90 ([12]; pH 7.3, 1% TSB) | LD90 ([13]; pH 5.5, 0.25% glucose) | also measured |
| --- | --- | --- | --- | --- | --- | --- | --- | --- | --- | --- | --- | --- | --- | --- | --- | --- | --- |
| CCCCCCCCCCCCCCCC(=O)NCC(=O)N[C@@H](CCCNC(=N)N)C(=O)N[C@@H](CCCNC(=N)N)C(=O)NCC(=O)N[C@@H](CO)C(=O)NCC(=O)N[C@@H](CC(C)C)C(=O)NCC(=O)N[C@@H](CCCNC(=N)N)C(=O)N[C@@H](CO)C(=O)N[C@@H](CO)C(=O)N[C@@H](CO)C(=O)N[C@@H](CCCNC(=N)N)C(=O)NCC(=O)N[C@@H](CCC(N)=O)C(=O)N[C@@H](CCCNC(=N)N)C(=O)NCC(=O)N[C@@H](CO)C(=O)NCC(=O)N[C@@H](CO)C(=O)NCC(=O)N[C@@H](CCCNC(=N)N)C(=O)O [Pal-HR 1-18-HR] (Palmitoyl-GRRGSGLGRSSSRGQRGSGSGR-OH) | 16 µg/mL (≈ 6.63 µM) | 1 µg/mL (≈ 0.414 µM) | >32 µg/mL | 0.3 µg/mL | 1.18 µg/mL | 75 µg/mL | 0.15 µg/mL | 9.38 µg/mL | >32 µg/mL | 1 µg/mL (≈ 0.414 µM) | 8 µg/mL (≈ 3.31 µM) | 4.7 µg/mL | 37.5 µg/mL | 4 µg/mL (≈ 1.66 µM) | 1.18 µg/mL | – | LD90 ([4]; pH 7.3, 1% TSB): 75 µg/mL; LD90 (P. aeruginosa ATCC 10145; pH 7.3, 1% TSB): 1.18 µg/mL |
| CCCCCCCCCCCCCCCC(=O)NCC(=O)N[C@@H](CCCNC(=N)N)C(=O)N[C@@H](Cc1c[nH]cn1)C(=O)NCC(=O)N[C@@H](CO)C(=O)NCC(=O)N[C@@H](CC(C)C)C(=O)NCC(=O)N[C@@H](Cc1c[nH]cn1)C(=O)N[C@@H](CO)C(=O)N[C@@H](CO)C(=O)N[C@@H](CO)C(=O)N[C@@H](Cc1c[nH]cn1)C(=O)NCC(=O)N[C@@H](CCC(N)=O)C(=O)N[C@@H](Cc1c[nH]cn1)C(=O)NCC(=O)N[C@@H](CO)C(=O)NCC(=O)N[C@@H](CO)C(=O)NCC(=O)N[C@@H](CCCNC(=N)N)C(=O)O [Pal-HR 1-18] (Palmitoyl-GRHGSGLGHSSSHGQHGSGSGR-OH) | >32 µg/mL | 32 µg/mL (≈ 13.7 µM) | >32 µg/mL | 1.18 µg/mL | > 300 µg/mL | 75 µg/mL | 0.15 µg/mL | 2.35 µg/mL | >32 µg/mL | >32 µg/mL | >32 µg/mL | 4.7 µg/mL | 18.75 µg/mL | >32 µg/mL | 1.18 µg/mL | 0.3 µg/mL | LD90 ([5]; pH 7.3, 1% TSB): 9.38 µg/mL; LD90 ([6]; pH 7.3, 1% TSB): 9.38 µg/mL; LD90 ([10]; pH 5.5, 0.25% glucose): 37.5 µg/mL; LD90 ([10]; pH 7.3, 1% TSB): 18.75 µg/mL; LD90 ([11]; pH 6.5, 0.25% glucose): 37.5 µg/mL; LD90 ([12]; pH 5.5, 0.25% glucose): 0.3 µg/mL; LD90 ([12]; pH 7.3, 0.25% glucose): 0.59 µg/mL; LD90 ([14]; pH 7.3, 1% TSB): > 300 µg/mL |
| CCCCCCCCCCCCCCCC(=O)N[C@@H](CO)C(=O)N[C@@H](Cc1c[nH]cn1)C(=O)N[C@@H](Cc1c[nH]cn1)C(=O)N[C@@H](CCCNC(=N)N)C(=O)N[C@@H](CS)C(=O)N[C@@H](CS)C(=O)N[C@@H](CCCNC(=N)N)C(=O)N[C@@H](CO)C(=O)N[C@@H](Cc1c[nH]cn1)C(=O)N[C@@H](CCCNC(=N)N)C(=O)N[C@@H](CS)C(=O)N[C@@H](CCCNC(=N)N)C(=O)N[C@@H](CCCNC(=N)N)C(=O)O [Pal-LCE-3B56–68] (Palmitoyl-SHHRCCRSHRCRR-OH) | >32 µg/mL | >32 µg/mL | >32 µg/mL | <0.019 µg/mL | – | 4.7 µg/mL | 0.15 µg/mL | 0.59 µg/mL | 1 µg/mL (≈ 0.517 µM) | 0.25 µg/mL (≈ 0.129 µM) | 16 µg/mL (≈ 8.28 µM) | – | – | >32 µg/mL | – | 0.15 µg/mL | LD90 (E. coli ATCC 11775; pH 5.5, 0.25% glucose): 0.3 µg/mL; LD90 (E. coli ATCC 11775; pH 7.3, 0.25% glucose): 0.59 µg/mL; LD90 ([4]; pH 5.5, 0.25% glucose): >300 µg/mL; LD90 ([5]; pH 6.0, 0.25% glucose): 0.15 µg/mL; LD90 ([13]; pH 7.3, 0.25% glucose): 2.35 µg/mL; LD90 ([14]; pH 5.5, 0.25% glucose): 0.3 µg/mL; LD90 ([15]; pH 5.5, 0.25% glucose): 0.038 µg/mL; LD90 ([15]; pH 7.3, 0.25% glucose): 1.18 µg/mL; LD90 (P. aeruginosa ATCC 10145; pH 5.5, 0.25% glucose): 0.075 µg/mL |
